The results in this text go back to article PMC7127091 (Bioorganic & Medicinal Chemistry, 2010).

One experiment concerns human cytomegalovirus (HCMV) strain Davis. Briefly: Anti-HCMV assay in HEL fibroblasts. It counts as cell-based. The note with it: HCMV replication in cell culture.
On to `C[C@H](NC(=O)[C@@]1(Cc2ccccc2)CCN1C(=O)OCc1ccccc1)C(=O)NC(C)(C)C` [(R,S)-4a, (2R,1’S)-2-Benzyl-1-benzyloxycarbonyl-2-[(1’-tert-butylcarbamoyl)ethyl]carbamoyl-azetidine], for which the “anti-HCMV activity (in words)” value is listed as “retain the anti-HCMV activity”.
As for `C[C@H](NC(=O)[C@]1(Cc2ccccc2)CCN1C(=O)OCc1ccccc1)C(=O)NC(C)(C)C` [(S,S)-4a, (2S,1’S)-2-Benzyl-1-benzyloxycarbonyl-2-[(1’-tert-butylcarbamoyl)ethyl]carbamoyl-azetidine], the “anti-HCMV activity (in words)” value was “retain the anti-HCMV activity”.
Consider `CC(C)[C@H](NC(=O)[C@]1(Cc2ccccc2)CCN1C(=O)OCc1ccccc1)C(N)=O` [(S,S)-7c, (2S,1’S)-2-Benzyl-1-benzyloxycarbonyl-2-[(1’-carbamoyl-2’-methyl)propyl]carbamoyl-azetidine], for which the “anti-HCMV activity (in words)” value is reported as “maintain measurable anti-HCMV activity”.
Regarding `C[C@H](NC(=O)[C@]1(Cc2ccccc2)CCN1C(=O)NCc1ccccc1)C(N)=O` [(S,S)-10h, (2S,1’S)-2-Benzyl-1-benzylcarbamoyl-2-[(1’-carbamoyl)ethyl]carbamoylazetidine], the “anti-HCMV activity (in words)” value is “inactive”.
On to “(2S,1’S)-2-Benzyl-2-[(1’-carbamoyl)ethyl]carbamoyl-1-phenetylcarbonylazetidine [(S,S)-10g]”, for which the “anti-HCMV activity (in words)” value is “inactive”.
For `C[C@H](NC(=O)[C@H](Cc1ccccc1)NC(=O)OCc1ccccc1)C(N)=O` [compound 11, Z-Phe-Ala-NH2], the “anti-HCMV activity (in words)” value was “unable to inhibit the replication of HCMV”.
The same measure, in the same setting: as for `C[C@@H](NC(=O)[C@]1(Cc2ccccc2)CCN1C(=O)OCc1ccccc1)C(N)=O` [(S,R)-7a, (2S,1’R)-2-Benzyl-1-benzyloxycarbonyl-2-[(1’-carbamoyl)ethyl]carbamoylazetidine], the entry is “maintain measurable anti-HCMV activity”.
Take `C[C@H](NC(=O)[C@]1(Cc2ccccc2)CCN1C(=O)OCC1c2ccccc2-c2ccccc21)C(N)=O` [(S,S)-10a, (2S,1’S)-2-Benzyl-2-[(1’-carbamoyl)ethyl]carbamoyl-1-(9-fluorenylmethoxy)carbonyl-azetidine]: the “anti-HCMV activity (in words)” value was “inactive against HCMV”.
For `C[C@H](NC(=O)[C@]1(Cc2ccccc2)CCN1C(=O)N[C@@H](C)c1ccccc1)C(N)=O` [(S,S)-10i, (2S,1’S,1’’S)-2-Benzyl-2-[(1’’-carbamoyl)ethyl]carbamoyl-1-[(1’-phenyl)ethyl]carbamoyl-azetidine], the “anti-HCMV activity (in words)” value is “inactive”.
On to `CC(C)CNC(=O)[C@H](C)NC(=O)[C@]1(Cc2ccccc2)CCN1C(=O)OCc1ccccc1` [(S,S)-4c, (2S,1’S)-2-Benzyl-1-benzyloxycarbonyl-2-[(1’-isobutylcarbamoyl)ethyl]carbamoyl-azetidine], for which the “anti-HCMV activity (in words)” value is recorded as “retain the anti-HCMV activity”.
Take `CC(C)C[C@H](NC(=O)[C@@]1(Cc2ccccc2)CCN1C(=O)OCc1ccccc1)C(N)=O` [(R,S)-7d, (2R,1’S)-2-Benzyl-1-benzyloxycarbonyl-2-[(1’-carbamoyl-3’-methyl)butyl]carbamoyl-azetidine]: the “anti-HCMV activity (in words)” value was “maintain measurable anti-HCMV activity”.
With `C[C@H](NC(=O)[C@H](Cc1ccccc1)NC(=O)OCc1ccccc1)C(=O)NC(C)(C)C` [compound 12, Z-Phe-Ala-NH^tBu], the “anti-HCMV activity (in words)” value was “unable to inhibit the replication of HCMV”.

Still in this experiment, the particulars now being: read-out: EC50 HCMV; Davis strain, 100 PFU, HEL fibroblasts, 7 days.
As a reminder, the EC50 is the concentration at which the effect is half-maximal. As to “(2S,1’S)-2-Benzyl-2-[(1’-carbamoyl)ethyl]carbamoyl-1-phenetylcarbonylazetidine [(S,S)-10g]”, the concentration for a half-maximal effect (EC50) was greater than 100 µM.
As for “(2S,1’S)-2-Benzyl-2-[(1’-carbamoyl)ethyl]carbamoyl-1-(4-nitrobenzyloxy)carbonyl-azetidine [(S,S)-10c]”, the EC50 was greater than 20 µM.
